# Source: patent US6627651B1, “Cyclic compounds and uses thereof” (Takeda Chemical Industries, Ltd., priority 1999, dated 2003)
row,SMILES,melting point [°C]
1,"Cc1ccc(-c2ccc3c(c2)C=C(C(=O)Nc2ccc(C4=NCCN4)cc2)CCO3)cc1 [Compound 92, N-[4-(2-imidazolin-2-yl)phenyl]-7-(4-methylphenyl)-2,3-dihydro-1-benzooxepine-4-carboxamide]",282 to 283
2,"COC(=O)N1CCN=C1Cc1ccc(NC(=O)C2=Cc3cc(-c4ccc(C)cc4)ccc3OCC2)cc1 [Compound 96, N-[4-[(1-methoxycarbonyl-2-imidazolin-2-yl)methyl]phenyl]-7-(4-methylphenyl)-2,3-dihydro-1-benzooxepine-4-carboxamide]",170 to 171
3,"Cc1ccc(COc2cccc(/C=C/c3ccc(CN4CCCCC4)cc3)c2)cc1 [Compound 97, (E)-1-[4-[3-(4-methylbenzyloxy)styryl]benzyl]piperidine]",87 to 88
4,"Cc1ccc(COc2cccc(/C=C/c3ccc(C[N+]4(C)CCCCC4)cc3)c2)cc1.[I-] [Compound 98, (E)-1-methyl-1-[4-[3-(4-methylbenzyloxy)styryl]benzyl]piperidinium iodide]",189 to 192
5,"CCCOCCOc1ccccc1COc1ccc2c(c1)C=C(C(=O)Nc1ccc(CN(C)C3CCOCC3)cc1)CCS2(=O)=O [Compound 99, N-[4-[[N-methyl-N-(tetrahydropyran-4-yl)amino]methyl]phenyl]-7-[[2-(2-propoxyethoxy)benzyl]oxy]-1,1-dioxo-2,3-dihydro-1-benzothiepine-4-carboxamide]",136 to 138
6,"CCOc1ccccc1COc1ccc2c(c1)C=C(C(=O)Nc1ccc(CN(C)C3CCOCC3)cc1)CCS2(=O)=O [Compound 101, 7-[(2-ethoxybenzyl)oxy]-N-[4-[[N-methyl-N-(tetrahydropyran-4-yl)amino]methyl]phenyl]-1,1-dioxo-2,3-dihydro-1-benzothiepine-4-carboxamide]",211 to 214
7,"COc1ccccc1COc1ccc2c(c1)C=C(C(=O)Nc1ccc(CN(C)C3CCOCC3)cc1)CCS2(=O)=O [Compound 102, 7-[(2-methoxybenzyl)oxy]-N-[4-[[N-methyl-N-(tetrahydropyran-4-yl)amino]methyl]phenyl]-1,1-dioxo-2,3-dihydro-1-benzothiepine-4-carboxamide]",223 to 225
8,"CN(Cc1ccc(NC(=O)C2=Cc3cc(OCc4ccccc4Cl)ccc3S(=O)(=O)CC2)cc1)C1CCOCC1 [Compound 103, 7-[(2-chlorobenzyl)oxy]-N-[4-[[N-methyl-N-(tetrahydropyran-4-yl)amino]methyl]phenyl]-1,1-dioxo-2,3-dihydro-1-benzothiepine-4-carboxamide]",205 to 207
9,"CCOCCOc1ccccc1COc1ccc2c(c1)C=C(C(=O)Nc1ccc(CN(C)C3CCOCC3)cc1)CCS2(=O)=O [Compound 104, 7-[[2-(2-ethoxyethoxy)benzyl]oxy]-N-[4-[[N-methyl-N-(tetrahydropyran-4-yl)amino]methyl]phenyl]-1,1-dioxo-2,3-dihydro-1-benzothiepine-4-carboxamide]",132 to 136
10,"CCCOc1cccc(CCOc2ccc3c(c2)C=C(C(=O)Nc2ccc(CN(C)C4CCOCC4)cc2)CCS3(=O)=O)c1 [Compound 105, N-[4-[[N-methyl-N-(tetrahydropyran-4-yl)amino]methyl]phenyl]-7-[(3-propoxyphenethyl)oxy]-1,1-dioxo-2,3-dihydro-1-benzothiepine-4-carboxamide]",153 to 154
11,"CCCOc1ccccc1CCOc1ccc2c(c1)C=C(C(=O)Nc1ccc(CN(C)C3CCOCC3)cc1)CCS2(=O)=O [Compound 106, N-[4-[[N-methyl-N-(tetrahydropyran-4-yl)amino]methyl]phenyl]-7-[(2-propoxyphenethyl)oxy]-1,1-dioxo-2,3-dihydro-1-benzothiepine-4-carboxamide]",161 to 162
